Reference: US20240124503A1, “HETEROAROMATIC PHOSPHONIUM SALTS AND THEIR USE TREATING CANCER” (FLORATEK PHARMA S.A., priority 2021, published 2024)

Assays:
[1] = target: T1, RIOK2 (Homo sapiens, UniProt Q9BVS4); assay: KINOMEscan competition binding, RIOK2
T1 construct: purchased Eurofins (KINOMEscan); host or cells: E. coli BL21-derived host (T7 phage) or HEK-293
Method: Selected compounds were screened for kinase inhibition using the KINOMEscan™ assay (Eurofins) which is based on a competition binding assay that quantitatively measures the ability of a compound to compete with an immobilized, active-site directed ligand. The assay was performed by combining three components: DNA-tagged kinase; immobilized ligand; and the test compound. The ability of the test compound to compete with the immobilized ligand was measured via quantitative PCR of the DNA tag.
Kinase-tagged T7 phage strains were prepared in an E. coli host derived from the BL21 strain. E. coli were grown to log-phase and infected with T7 phage and incubated with shaking at 32° C. until lysis. The lysates were centrifuged and filtered to remove cell debris. The remaining kinases were produced in HEK-293 cells and subsequently tagged with DNA for qPCR detection. Streptavidin-coated magnetic beads were treated with biotinylated small molecule ligands for 30 minutes at room temperature to generate affinity resins for kinase assays. […] Kds were determined using an 11-point 3-fold compound dilution series with three DMSO control points. […] The kinase concentration in the eluates was measured by qPCR. […]
Binding constants (Kds) were calculated with a standard dose-response curve using the Hill equation: Response=Background+[Signal−Background/1+(Kd^Hill Slope/Dose^Hill Slope)] […]

[2] = test system: breast cancer cell; assay: Cell viability, breast cancer cells (panel statement); format: cell-based; conditions: text summary of Tables 4A & 4B; read-out: IC50, breast cancer cell growth
Method: (§1) Antitumor activity of the compounds and doxorubicin as a positive control was assessed by using the CellTiter-Blue Cell Viability Assay (Promega, #G8082) or CellTiter-Glow® Luminescent Cell Viability assay (Promega #G7572) according to the manufacturer's instructions. The compounds were tested at 5 or 6 concentrations in half-log increments (highest concentration 30 μM or 100 μM) in duplicate or triplicate well conditions.
(§2) Tumor cells were grown at 37° C. in a humidified atmosphere with 5% CO2 in RPMI 1640 or DMEM medium, supplemented with 10% (v/v) fetal calf serum and 50 μg/ml gentamicin for up to 20 passages, and were passaged once or twice weekly. Cells were harvested using TrypLE or PBS buffer containing 1 mM EDTA, and the percentage of viable cells was determined using a CASY Model TI cell counter (OMNI Life Science). Cells were harvested from exponential phase cultures, counted and plated in 96 well flat-bottom microtiter plates at a cell density depending on the cell line's growth rate (4,000-20,000 cells/well depending on the cell line's growth rate, up to 60,000 for hematological cancer cell lines) in RPMI 1640 or DMEM medium supplemented with 10% (v/v) fetal calf serum and 50 μg/ml gentamicin (140 μl/well). […] Viability of cells was quantified by the CellTiter-Blue® cell viability assay (Promega G8081) or CellTiter-Glow® Luminescent Cell Viability assay (Promega #G7572). […]

[3] = test system: parental H69 cells; assay: Cell viability assay, parental H69 cells; format: cell-based; conditions: Homo sapiens, NCI-H69; parental H69 cells (SCLC)
Method: as §1, §2

[4] = test system: CHP-134; assay: Cell viability assay, CHP-134; format: cell-based; conditions: Homo sapiens; brain carcinoma cell line CHP-134
Method: as §1, §2

T1 sequence (Q9BVS4 whole entry): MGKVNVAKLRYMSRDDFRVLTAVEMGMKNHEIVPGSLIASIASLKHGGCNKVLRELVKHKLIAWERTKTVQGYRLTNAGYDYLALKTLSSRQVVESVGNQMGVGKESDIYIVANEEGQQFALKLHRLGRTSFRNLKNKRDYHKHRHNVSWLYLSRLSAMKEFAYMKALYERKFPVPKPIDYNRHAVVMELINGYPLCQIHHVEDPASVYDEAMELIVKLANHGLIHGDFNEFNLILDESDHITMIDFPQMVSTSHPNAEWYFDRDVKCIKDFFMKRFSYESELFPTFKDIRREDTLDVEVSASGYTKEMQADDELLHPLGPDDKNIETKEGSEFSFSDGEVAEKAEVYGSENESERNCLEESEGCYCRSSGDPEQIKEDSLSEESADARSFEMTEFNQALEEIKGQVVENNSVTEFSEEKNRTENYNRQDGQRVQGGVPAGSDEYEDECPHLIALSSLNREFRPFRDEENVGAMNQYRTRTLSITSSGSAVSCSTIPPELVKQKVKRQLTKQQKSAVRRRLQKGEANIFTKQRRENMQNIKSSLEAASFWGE

`COc1c(O)ccc2c(=O)c(O)c(-c3ccc(CCCC[P+](c4ccccc4)(c4ccccc4)c4ccccc4)cc3)oc12` [SND190, (4-(4-(3,7-Dihydroxy-8-methoxy-4-oxo-4H1-chromen-2-yl)phenyl)butyl)triphenylphosphonium bromide] gave a Kd [1] of 710 nM, an IC50 [2] of less than 5000 nM and an IC50 [3] of 1420 nM. The IC50 [4] was 1100 nM.
